This is an account of results in ChEMBL document CHEMBL1201862, “PubChem BioAssay data set” (2004).

SMILES strings stand for the structures.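 48-hour exposure; five concentrations; linearly interpolated endpoints. The concentration for 50% growth inhibition is given as GI50.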 Active and inactive are the calls of the source. No stated cut-off is given here; in the data, active = GI50 up to about 1.1 µM and inactive = higher.

Among the test systems are OVCAR-4; LOX IMVI; OVCAR-3; SK-MEL-2; NCI-H226; HCT-116; U-251; HCT-15; SNB-75; SW-620; ACHN; Malme-3M; KM-20L2; UACC-257; SR.
Common to all, as to experiment: NCI-60 cell line screen, 48 h

Turning to `N=C(N)NCCCC(NCc1c2ccccc2[n+]([O-])c2ccccc12)C(=O)O` (stereo not drawn), the GI50 in the test on OVCAR-4 is 31.2 µM (inactive); with LOX IMVI, 34.5 µM (inactive); with OVCAR-3 it was > 100 µM (inactive); in the test with SK-MEL-2 it was > 100 µM (inactive); in the test with NCI-H226 it was 35.5 µM (inactive); with HCT-116, 25.6 µM (inactive). For the same molecule, the GI50 was 77.4 µM (inactive) in the test on U-251; 32.9 µM in the test with HCT-15; 28.2 µM (inactive) in the test on SNB-75; 39.8 µM (inactive) in the test on SW-620; 42.7 µM (inactive) with ACHN; > 100 µM (inactive) in the test with Malme-3M. In addition, the GI50 with KM-20L2 is 42.9 µM (inactive); with UACC-257, > 100 µM (inactive).
Regarding `CCN(CC)CCOC(c1ccccc1)c1ccccc1.CCOC(=O)Nc1ccc(S(=O)(=O)OC)cc1.CCOC(=O)Nc1ccc(S(=O)(=O)OC)cc1.Nc1ccc(C(=O)O)c(O)c1`, the GI50 in the test on OVCAR-4, with LOX IMVI, with OVCAR-3, in the test with SK-MEL-2, in the test with NCI-H226 and in the test with HCT-116 was > 100 µM (inactive) throughout. Besides, the GI50 is > 100 µM (inactive) with U-251; greater than 100 µM in the test on HCT-15; > 100 µM (inactive) in the test with SNB-75; > 100 µM (inactive) with SW-620; > 100 µM (inactive) in the test on ACHN; > 100 µM (inactive) with Malme-3M. The GI50 in the test on KM-20L2 and with UACC-257 was > 100 µM (inactive) in each case.
Consider `CC1CCC2[C@@H](C)COC3O[C@]4(C)CCC1C32OO4` (stereo partly drawn), for which the GI50 with OVCAR-4, in the test on LOX IMVI, in the test on OVCAR-3, with SK-MEL-2, in the test on NCI-H226 and in the test on HCT-116 was > 100 µM (inactive) throughout. The GI50 with U-251 was > 100 µM (inactive); with HCT-15 it was greater than 100 µM; in the test on SNB-75, 91.6 µM (inactive); in the test on SW-620 it was > 100 µM (inactive); with ACHN it was > 100 µM (inactive); in the test on Malme-3M it was > 100 µM (inactive). Also, the GI50 with KM-20L2 and with UACC-257 was > 100 µM (inactive) throughout.
As for `CC(C)=CCC/C(C)=C/Cc1c(O)ccc2c1[nH]c1cc(O)c(C)cc12`, the GI50 is 3.78 µM (inactive) in the test with OVCAR-4; 8.36 µM (inactive) with LOX IMVI; 5.73 µM (inactive) in the test with OVCAR-3; > 25 µM (inactive) in the test on SK-MEL-2; 15.6 µM (inactive) in the test on NCI-H226; 13.3 µM (inactive) with HCT-116. Further, the GI50 with U-251 was 10 µM (inactive); in the test with HCT-15 it was 9.71 µM; in the test with SR, 8.13 µM (inactive); in the test with SW-620 it was 13.9 µM (inactive); in the test with ACHN it was 8.85 µM (inactive); in the test on Malme-3M it was 13.6 µM (inactive). The GI50 with KM-20L2 was 13.4 µM (inactive).
In the case of `CN(C)CCN1CCc2c([nH]c3ccccc23)C1c1cccnc1` (stereo not drawn), the GI50 in the test on OVCAR-4 is > 100 µM (inactive); in the test on OVCAR-3, > 100 µM (inactive); with HCT-116 it was > 100 µM (inactive); with U-251 it was > 100 µM (inactive); in the test with HCT-15, greater than 100 µM; in the test on SNB-75, 61.1 µM (inactive). In addition, the GI50 in the test on SR is > 100 µM (inactive); in the test with SW-620 it was > 100 µM (inactive); in the test on ACHN, 23 µM (inactive); in the test with KM-20L2, > 100 µM (inactive); in the test on UACC-257, > 100 µM (inactive).
As for `Cc1nc(C(=O)O)c2ccccc2n1`, the GI50 with OVCAR-3, in the test with SK-MEL-2, with HCT-116, in the test on U-251, with SNB-75 and in the test on SR was > 100 µM (inactive) in each case. Moreover, the GI50 with SW-620, with ACHN, with Malme-3M, in the test with KM-20L2 and with UACC-257 was > 100 µM (inactive) each time.
In the case of `CC/C=C/c1cc2c(c3[nH]ccc13)[C@@H](C)CC2C.CC/C=C/c1cc2cc[nH]c2c2c1C(C)C[C@@H]2C.CCc1cc2c(c3[nH]ccc13)[C@@H](C)CC2C` (stereo partly drawn), the GI50 with OVCAR-4 was 15.4 µM (inactive); with LOX IMVI, 15.6 µM (inactive); in the test on SK-MEL-2 it was 15.4 µM (inactive); with NCI-H226, 15.2 µM (inactive); in the test with HCT-116 it was 18.5 µM (inactive); in the test with U-251, 18 µM (inactive). The GI50 in the test with SNB-75 was 10 µM (inactive); with SW-620, 16.9 µM (inactive); in the test with ACHN, 16.2 µM (inactive); with Malme-3M, 20.2 µM (inactive); in the test with KM-20L2, 14.8 µM (inactive); in the test on UACC-257, 16 µM (inactive).
For the molecule `CCN(CC)/C(=C\Cl)Nc1ccccn1.[O-][Cl+3]([O-])([O-])O`, the GI50 with OVCAR-4, in the test with LOX IMVI, in the test on OVCAR-3, in the test on SK-MEL-2, in the test with NCI-H226 and in the test with HCT-116 was > 100 µM (inactive) throughout. Also, the GI50 with U-251 was > 100 µM (inactive); in the test on HCT-15 it was greater than 100 µM; in the test with SNB-75, > 100 µM (inactive); in the test on SW-620, > 100 µM (inactive); in the test on ACHN it was > 100 µM (inactive); in the test with Malme-3M it was > 100 µM (inactive). The GI50 with KM-20L2 and in the test with UACC-257 was > 100 µM (inactive) each time.
`Nn1c(-c2ccccc2Cl)nc2ccccc2c1=O`: the GI50 with OVCAR-4 was > 100 µM (inactive); in the test with OVCAR-3, > 100 µM (inactive); in the test on SK-MEL-2, > 100 µM (inactive); in the test on NCI-H226, 57 µM (inactive); with HCT-116, > 100 µM (inactive); in the test on U-251, > 100 µM (inactive). The GI50 with HCT-15 is greater than 100 µM; in the test on SNB-75, > 100 µM (inactive); with SW-620, > 100 µM (inactive); in the test with ACHN, > 100 µM (inactive); in the test on Malme-3M, 83.8 µM (inactive); in the test on KM-20L2 it was > 100 µM (inactive). In addition, in the test on UACC-257, the GI50 was > 100 µM (inactive).
Regarding `[O-][S+](Cc1cc2c(cc1Br)OCO2)c1ccccc1` (stereo not drawn), the GI50 in the test with OVCAR-4 was 67.6 µM (inactive); with LOX IMVI it was 15.7 µM (inactive); in the test with OVCAR-3, 35.3 µM (inactive); in the test on SK-MEL-2 it was > 100 µM (inactive); with NCI-H226 it was > 100 µM (inactive); in the test with HCT-116, 44.9 µM (inactive). For the same molecule, the GI50 in the test with U-251 is 30.3 µM (inactive); in the test with HCT-15 it was 34.4 µM; with SNB-75, > 100 µM (inactive); in the test with SW-620, 15.4 µM (inactive); in the test on ACHN, 64.6 µM (inactive); with Malme-3M, 49.1 µM (inactive). The GI50 in the test on KM-20L2 was 71.4 µM (inactive); with UACC-257, 51.4 µM (inactive).
Consider `Cc1nc(Nc2ccc(Cl)cc2)sc1C(=O)NNc1ccc([N+](=O)[O-])cc1[N+](=O)[O-]`, for which the GI50 with OVCAR-4 is 18.4 µM (inactive); in the test on LOX IMVI, 15.1 µM (inactive); in the test on OVCAR-3 it was 19.3 µM (inactive); in the test on SK-MEL-2, 17.9 µM (inactive); in the test with NCI-H226, 15.7 µM (inactive); with HCT-116, 13.8 µM (inactive). For the same molecule, the GI50 in the test with U-251 is 15.6 µM (inactive); in the test with SNB-75, 16.7 µM (inactive); in the test with SW-620 it was 22 µM (inactive); in the test with ACHN it was 17.3 µM (inactive); in the test on Malme-3M it was 20.7 µM (inactive); with KM-20L2, 16.2 µM (inactive). Further, the GI50 with UACC-257 was 16.4 µM (inactive).
